Reference: patent publication US20250101028A1, “HETEROCYCLIC COMPOUNDS, COMPOSITIONS THEREOF, AND METHODS OF TREATMENT THEREWITH” (BeiGene, Ltd., priority 2022, published 2025)

What follows are compounds tested against T1, GST-tagged GDP-loaded KRAS G12V (amino acids 1-169) (Homo sapiens, UniProt P01116, G12V) (assay: KRAS G12V probe displacement assay (TR-FRET)). Settings: displacement of biotinylated probe 2 from GDP-loaded KRAS G12V.
T1 construct: GST-tagged GDP-loaded KRAS G12V (amino acids 1-169); made in house; host or cells: E. coli
T1 sequence (P01116 1-169 isoform P01116-2 G12V): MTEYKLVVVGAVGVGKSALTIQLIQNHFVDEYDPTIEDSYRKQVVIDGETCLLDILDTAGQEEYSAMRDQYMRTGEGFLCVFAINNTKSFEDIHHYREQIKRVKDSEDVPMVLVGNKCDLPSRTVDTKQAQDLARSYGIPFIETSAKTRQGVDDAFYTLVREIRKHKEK
Format: binding
Experimental: KRAS WT and KRAS G12V Probe Displacement Assay
This assay was used to identify compounds which bind to GDP-loaded KRAS protein and are able to displace a biotinylated probe occupying the KRAS binding site. GST-tagged GDP-loaded WT KRAS (amino acids 1-169) and GST-tagged GDP-loaded KRAS G12V (amino acids 1-169) were expressed in E. coli and purified in house. All protein and reaction solutions were prepared in assay buffer containing 50 mM HEPES pH7.5, 50 mM NaCl, 1 mM MgCl2, 1 mM TCEP, 0.01% BSA, and 0.008% Brij-35. Purified WT KRAS (3 nM final concentration) or KRAS G12V protein (2 nM final concentration) was incubated with a 3-fold serially diluted compound in the assay plate (384 well microplate, black, Corning). Plates are incubated at 24° C. for 1 hr. Following the incubation, biotinylated probe 1 (60 nM final assay concentration) for WT KRAS and biotinylated probe 2 (2.5 nM final assay concentration) for KRAS G12V was added to the assay plate, respectively. After 1 hr incubation at 24° C., Mab Anti-GST-Tb cryptate (Cisbio) and Streptavidin-XL665 (Cisbio) were added and further incubated at 24° C. for another 1 hr. The TR-FRET signals (ex337 nm, em665 nm/620 nm) were read on BMG PHERAstar FSX instrument. The inhibition percentage of KRAS protein binding with biotinylated probe in presence of increasing concentrations of compounds was calculated based on the ratio of fluorescence at 665 nm to that at 620 nm. The IC50 value of each compound was calculated from fitting the data to the four-parameter logistic model by Dotmatics.

| SMILES | IC50 |
| --- | --- |
| N#C[C@H]1C[C@@H](Nc2nc(OC[C@@]34CCCN3C[C@H](F)C4)nc3c(F)c(-c4ccc(F)c5sc(N)nc45)c(C(F)(F)F)cc23)C1 [Example 18, (cis)-3-((7-(2-amino-7-fluorobenzo[d]thiazol-4-yl)-8-fluoro-2-(((2R,7aS)-2-fluorotetrahydro-1H-pyrrolizin-7a(5H)-yl)methoxy)-6-(trifluoromethyl)quinazolin-4-yl)amino)cyclobutane-1-carbonitrile] | 13 nM |
| N#C[C@H]1C[C@H](Nc2nc(OC[C@@]34CCCN3C[C@H](F)C4)nc3c(F)c(-c4ccc(F)c5sc(N)nc45)c(C(F)(F)F)cc23)C1 [Example 19, (trans)-3-((7-(2-amino-7-fluorobenzo[d]thiazol-4-yl)-8-fluoro-2-(((2R,7aS)-2-fluorotetrahydro-1H-pyrrolizin-7a(5H)-yl)methoxy)-6-(trifluoromethyl)quinazolin-4-yl)amino)cyclobutane-1-carbonitrile] | 9.9 nM |
| Nc1nc2c(-c3c(C(F)(F)F)cc4c(N[C@H]5C[C@@H](CO)C5)nc(OC[C@@]56CCCN5C[C@H](F)C6)nc4c3F)ccc(F)c2s1 [Example 20, ((cis)-3-((7-(2-amino-7-fluorobenzo[d]thiazol-4-yl)-8-fluoro-2-(((2R,7aS)-2-fluorotetrahydro-1H-pyrrolizin-7a(5H)-yl)methoxy)-6-(trifluoromethyl)quinazolin-4-yl)amino)cyclobutyl)methanol] | 7.9 nM |
| Nc1nc2c(-c3c(C(F)(F)F)cc4c(N[C@H]5C[C@H](CO)C5)nc(OC[C@@]56CCCN5C[C@H](F)C6)nc4c3F)ccc(F)c2s1 [Example 21, ((trans)-3-((7-(2-amino-7-fluorobenzo[d]thiazol-4-yl)-8-fluoro-2-(((2R,7aS)-2-fluorotetrahydro-1H-pyrrolizin-7a(5H)-yl)methoxy)-6-(trifluoromethyl)quinazolin-4-yl)amino)cyclobutyl)methanol] | 4.1 nM |
| Nc1nc2c(-c3c(C(F)(F)F)cc4c(NC5CC6(CCC6)C5)nc(OC[C@@]56CCCN5C[C@H](F)C6)nc4c3F)ccc(F)c2s1 [Example 22, 7-fluoro-4-(8-fluoro-2-(((2R,7aS)-2-fluorotetrahydro-1H-pyrrolizin-7a(5H)-yl)methoxy)-4-(spiro[3.3]heptan-2-ylamino)-6-(trifluoromethyl)quinazolin-7-yl)benzo[d]thiazol-2-amine] | 367 nM |
| Nc1nc2c(-c3c(C(F)(F)F)cc4c(NC5CC6(COC6)C5)nc(OC[C@@]56CCCN5C[C@H](F)C6)nc4c3F)ccc(F)c2s1 [Example 23, 4-(4-((2-oxaspiro[3.3]heptan-6-yl)amino)-8-fluoro-2-(((2R,7aS)-2-fluorotetrahydro-1H-pyrrolizin-7a(5H)-yl)methoxy)-6-(trifluoromethyl)quinazolin-7-yl)-7-fluorobenzo[d]thiazol-2-amine] | 23 nM |
| Nc1nc2c(-c3c(C(F)(F)F)cc4c(NC56CC(C5)C6)nc(OC[C@@]56CCCN5C[C@H](F)C6)nc4c3F)ccc(F)c2s1 [Example 24, 4-(4-(bicyclo [1.1.1]pentan-1-ylamino)-8-fluoro-2-(((2R,7aS)-2-fluorotetrahydro-1H-pyrrolizin-7a(5H)-yl)methoxy)-6-(trifluoromethyl)quinazolin-7-yl)-7-fluorobenzo[d]thiazol-2-amine] | 24 nM |
| N#C[C@H]1CCC[C@H]1Nc1nc(OC[C@@]23CCCN2C[C@H](F)C3)nc2c(F)c(-c3ccc(F)c4sc(N)nc34)c(C(F)(F)F)cc12 [Example 26, (1S,2R)-2-((7-(2-amino-7-fluorobenzo[d]thiazol-4-yl)-8-fluoro-2-(((2R,7aS)-2-fluorotetrahydro-1H-pyrrolizin-7a(5H)-yl)methoxy)-6-(trifluoromethyl)quinazolin-4-yl)amino)cyclopentane-1-carbonitrile] | 11 nM |
| Nc1nc2c(-c3c(C(F)(F)F)cc4c(NC5CCCCC5)nc(OC[C@@]56CCCN5C[C@H](F)C6)nc4c3F)ccc(F)c2s1 [Example 27, 4-(4-(cyclohexylamino)-8-fluoro-2-(((2R,7aS)-2-fluorotetrahydro-1H-pyrrolizin-7a(5H)-yl)methoxy)-6-(trifluoromethyl)quinazolin-7-yl)-7-fluorobenzo[d]thiazol-2-amine] | 503 nM |
| Nc1nc2c(-c3c(Cl)cc4c(NC5CC5)nc(OC[C@@]56CCCN5C[C@H](F)C6)nc4c3F)ccc(F)c2s1 [Example 28, 4-(6-chloro-4-(cyclopropylamino)-8-fluoro-2-(((2R,7aS)-2-fluorotetrahydro-1H-pyrrolizin-7a(5H)-yl)methoxy)quinazolin-7-yl)-7-fluorobenzo[d]thiazol-2-amine] | 3.8 nM |
| Nc1nc2c(-c3c(Cl)cc4c(N[C@H]5[C@@H]6COC[C@@H]65)nc(OC[C@@]56CCCN5C[C@H](F)C6)nc4c3F)ccc(F)c2s1 [Example 29, 4-(4-(((1R,5S,6r)-3-oxabicyclo[3.1.0]hexan-6-yl)amino)-6-chloro-8-fluoro-2-(((2R,7aS)-2-fluorotetrahydro-1H-pyrrolizin-7a(5H)-yl)methoxy)quinazolin-7-yl)-7-fluorobenzo[d]thiazol-2-amine] | 15 nM |
| CC(=O)N1C[C@@H]2[C@H](C1)[C@H]2Nc1nc(OC[C@@]23CCCN2C[C@H](F)C3)nc2c(F)c(-c3ccc(F)c4sc(N)nc34)c(Cl)cc12 [Example 30, 1-((1R,5S,6s)-6-((7-(2-amino-7-fluorobenzo[d]thiazol-4-yl)-6-chloro-8-fluoro-2-(((2R,7aS)-2-fluorotetrahydro-1H-pyrrolizin-7a(5H)-yl)methoxy)quinazolin-4-yl)amino)-3-azabicyclo[3.1.0]hexan-3-yl)ethan-1-one] | 3.5 nM |
| Nc1nc2c(-c3c(Cl)cc4c(NC5CCC5)nc(OC[C@@]56CCCN5C[C@H](F)C6)nc4c3F)ccc(F)c2s1 [Example 31, 4-(6-chloro-4-(cyclobutylamino)-8-fluoro-2-(((2R,7aS)-2-fluorotetrahydro-1H-pyrrolizin-7a(5H)-yl)methoxy)quinazolin-7-yl)-7-fluorobenzo[d]thiazol-2-amine] | 57 nM |
| Nc1nc2c(-c3c(Cl)cc4c(NC56CC(C5)C6)nc(OC[C@@]56CCCN5C[C@H](F)C6)nc4c3F)ccc(F)c2s1 [Example 32, 4-(4-(bicyclo[1.1.1]pentan-1-ylamino)-6-chloro-8-fluoro-2-(((2R,7aS)-2-fluorotetrahydro-1H-pyrrolizin-7a(5H)-yl)methoxy)quinazolin-7-yl)-7-fluorobenzo[d]thiazol-2-amine] | 21 nM |
| CC1CN(c2nc(OC[C@@]34CCCN3C[C@H](F)C4)nc3c(F)c(-c4ccc(F)c5sc(N)nc45)c(C(F)(F)F)cc23)C1 [Example 34, 7-fluoro-4-(8-fluoro-2-(((2R,7aS)-2-fluorotetrahydro-1H-pyrrolizin-7a(5H)-yl)methoxy)-4-(3-methylazetidin-1-yl)-6-(trifluoromethyl)quinazolin-7-yl)benzo[d]thiazol-2-amine] | 52 nM |
| CC1CCN1c1nc(OC[C@@]23CCCN2C[C@H](F)C3)nc2c(F)c(-c3ccc(F)c4sc(N)nc34)c(C(F)(F)F)cc12 (some centres unmarked) [Example 35] | 30 nM |
| CC1(C)CCN1c1nc(OC[C@@]23CCCN2C[C@H](F)C3)nc2c(F)c(-c3ccc(F)c4sc(N)nc34)c(C(F)(F)F)cc12 [Example 36, 4-(4-(2,2-dimethylazetidin-1-yl)-8-fluoro-2-(((2R,7aS)-2-fluorotetrahydro-1H-pyrrolizin-7a(5H)-yl)methoxy)-6-(trifluoromethyl)quinazolin-7-yl)-7-fluorobenzo[d]thiazol-2-amine] | 19 nM |
